Laboratory results taken from PubChem BioAssay (NCI).
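Five compound concentrations were applied to cells in 96-well plates for 48 hours; endpoints were derived by simple linear interpolation of the resulting dose-response curve. GI50 marks 50% less growth. Definition used: TGI = concentration required for complete inhibition of growth.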

Legend:
Assay in all cases: NCI anticancer screen, dose series, 48 h
A549 NSCLC = test system: A549 NSCLC
ACHN renal = test system: ACHN renal
CAKI-1 renal = test system: CAKI-1 renal
K-562 leukemia = test system: K-562 leukemia
KM12 colon = test system: KM12 colon
SF-268 CNS = test system: SF-268 CNS
SK-MEL-28 melanoma = test system: SK-MEL-28 melanoma
SK-MEL-5 melanoma = test system: SK-MEL-5 melanoma
SR leukemia = test system: SR leukemia
SW-620 colon = test system: SW-620 colon

| Compound | TGI (A549 NSCLC) | TGI (ACHN renal) | TGI (CAKI-1 renal) | TGI (K-562 leukemia) | TGI (KM12 colon) | TGI (SF-268 CNS) | TGI (SK-MEL-28 melanoma) | TGI (SK-MEL-5 melanoma) | TGI (SR leukemia) | TGI (SW-620 colon) | GI50 (A549 NSCLC) | GI50 (ACHN renal) | GI50 (K-562 leukemia) | GI50 (KM12 colon) | GI50 (SF-268 CNS) | GI50 (SK-MEL-28 melanoma) | GI50 (SK-MEL-5 melanoma) | GI50 (SR leukemia) | GI50 (SW-620 colon) | GI50 (CAKI-1 renal) |
| --- | --- | --- | --- | --- | --- | --- | --- | --- | --- | --- | --- | --- | --- | --- | --- | --- | --- | --- | --- | --- |
| O=c1c2ccccc2[nH]n1Cc1ccccc1 | > 100 µM | > 100 µM | > 100 µM | > 100 µM | > 100 µM | > 100 µM | > 100 µM | > 100 µM | > 100 µM | > 100 µM |  |  |  |  |  |  |  |  |  |  |
| NCCSc1cc(O)c2c(c1N)C(=O)c1ccccc1C2=O | > 100 µM | > 100 µM | > 100 µM | 69.1 µM | > 100 µM | > 100 µM | > 100 µM | 33.4 µM | 73.4 µM | > 100 µM |  |  |  |  |  |  |  |  |  |  |
| CC1(C)[C@@H]2CC[C@]1(C)[C@H](OC(=O)/C=C/c1ccccc1)C2 | > 100 µM | 31.9 µM | 38 µM | 38.1 µM | 42.6 µM | 33.9 µM | 50.4 µM | 30.5 µM |  | 30.6 µM |  |  |  |  |  |  |  |  |  |  |
| COc1cccc(/C=N/NC(=O)CSCC(=O)N/N=C/c2cccc(OC)c2OC)c1OC | > 100 µM | > 100 µM | > 100 µM | > 100 µM | > 100 µM | > 100 µM | > 100 µM | > 100 µM | > 100 µM | > 100 µM |  |  |  |  |  |  |  |  |  |  |
| O=C1C=CC2OC(c3ccccc3)C(O)C2O1 (centres undefined) | 14.5 µM |  | 13 µM | 59.7 µM | 17.3 µM | 15.6 µM | 11.8 µM | 17.1 µM |  | 9.87 µM |  |  |  |  |  |  |  |  |  |  |
| COc1cc(OC)cc(-c2ccc(-c3ccc(C(=N)N)cn3)o2)c1 | 3.52 µM | 3.16 µM |  | 2.98 µM | 3.34 µM | 3.62 µM | 3.16 µM | 2.97 µM | 3.96 µM | 3.25 µM | 1.86 µM | 1.71 µM | 1.32 µM | 1.78 µM | 1.86 µM | 1.65 µM | 1.6 µM | 1.73 µM | 1.67 µM |  |
| COc1cc(C(=O)O[C@H](C(=O)NCCCNC(=O)[C@@H](OC(=O)c2cc(OC)cc3c(C)cccc23)[C@]2(C)CO2)[C@]2(C)CO2)c2cccc(C)c2c1 | 0.718 µM |  | 0.205 µM | 0.923 µM | 0.607 µM |  | 0.142 µM | 0.178 µM |  |  | 0.128 µM |  | < 0.0359 µM | 0.101 µM | < 0.01 µM | < 0.0375 µM | < 0.0154 µM |  | < 0.01 µM | 0.033 µM |
| COc1ccc2c3c(Nc4cccc(/C(C)=N\O)c4)[nH]c4ccccc4c-3c(N=O)c2c1 | > 100 µM | 91.7 µM | 54.8 µM | > 100 µM | > 100 µM | > 100 µM | 42.7 µM | > 100 µM | > 100 µM | > 100 µM | 27.6 µM | 33.3 µM | 31.6 µM | 28.1 µM | > 100 µM | 12.7 µM | 29.8 µM | 20.4 µM | 32.1 µM | 29.3 µM |
